Key:
Experiment in all cases: Free Choice Kinase Assay Projects, Flashplate
[1] = biological target: KDR (human) (UniProt P35968); conditions: compound 10.0 µM; ATP 1 µM
[2] = biological target: SRC (human) (UniProt P12931); conditions: compound 10.0 µM; ATP 0.3 µM
[3] = biological target: MAP3K8 (human) (UniProt P41279); conditions: compound 10.0 µM; ATP 3 µM
[4] = biological target: CDK4 CCND1 (human) (UniProt P11802+P24385); conditions: compound 10.0 µM; ATP 3 µM
[5] = biological target: EPHB4 (human) (UniProt P54760); conditions: compound 10.0 µM; ATP 1 µM
[6] = biological target: CDK2 CCNA2 (human) (UniProt P24941+P20248); conditions: compound 10.0 µM; ATP 0.3 µM
[7] = biological target: AKT1 (human) (UniProt P31749); conditions: compound 10.0 µM; ATP 3 µM
[8] = biological target: ERBB2 (human) (UniProt P04626); conditions: compound 10.0 µM; ATP 1 µM
[9] = biological target: AURKB (human) (UniProt Q96GD4); conditions: compound 10.0 µM; ATP 10 µM
[10] = biological target: AXL (human) (UniProt P30530); conditions: compound 10.0 µM; ATP 0.3 µM
[11] = biological target: PLK1 (human) (UniProt P53350); conditions: compound 10.0 µM; ATP 1 µM
[12] = biological target: PLK4 (human) (UniProt O00444); conditions: compound 10.0 µM; ATP 0.3 µM
[13] = biological target: MAPK10 (human) (UniProt P53779); conditions: compound 10.0 µM; ATP 0.3 µM
[14] = biological target: EGFR (human) (UniProt P00533); conditions: compound 10.0 µM; ATP 0.3 µM
[15] = biological target: MET (human) (UniProt P08581); conditions: compound 10.0 µM; ATP 0.3 µM
[16] = biological target: TEK (human) (UniProt Q02763); conditions: compound 10.0 µM; ATP 1 µM
[17] = biological target: PDGFRB (human) (UniProt P09619); conditions: compound 10.0 µM; ATP 0.3 µM
[18] = biological target: CSNK2A1 (human) (UniProt P68400); conditions: compound 10.0 µM; ATP 0.1 µM
[19] = biological target: NUAK1 (human) (UniProt O60285); conditions: compound 10.0 µM; ATP 1 µM
[20] = biological target: AURKA (human) (UniProt O14965); conditions: compound 10.0 µM; ATP 10 µM
[21] = biological target: MAPK14 (human) (UniProt Q16539); conditions: compound 10.0 µM; ATP 1 µM
[22] = biological target: IGF1R (human) (UniProt P08069); conditions: compound 10.0 µM; ATP 1 µM
[23] = biological target: PTK2 (human) (UniProt Q05397); conditions: compound 10.0 µM; ATP 1 µM
Sequence of PTK2 (human) (Q05397 whole entry, looked up): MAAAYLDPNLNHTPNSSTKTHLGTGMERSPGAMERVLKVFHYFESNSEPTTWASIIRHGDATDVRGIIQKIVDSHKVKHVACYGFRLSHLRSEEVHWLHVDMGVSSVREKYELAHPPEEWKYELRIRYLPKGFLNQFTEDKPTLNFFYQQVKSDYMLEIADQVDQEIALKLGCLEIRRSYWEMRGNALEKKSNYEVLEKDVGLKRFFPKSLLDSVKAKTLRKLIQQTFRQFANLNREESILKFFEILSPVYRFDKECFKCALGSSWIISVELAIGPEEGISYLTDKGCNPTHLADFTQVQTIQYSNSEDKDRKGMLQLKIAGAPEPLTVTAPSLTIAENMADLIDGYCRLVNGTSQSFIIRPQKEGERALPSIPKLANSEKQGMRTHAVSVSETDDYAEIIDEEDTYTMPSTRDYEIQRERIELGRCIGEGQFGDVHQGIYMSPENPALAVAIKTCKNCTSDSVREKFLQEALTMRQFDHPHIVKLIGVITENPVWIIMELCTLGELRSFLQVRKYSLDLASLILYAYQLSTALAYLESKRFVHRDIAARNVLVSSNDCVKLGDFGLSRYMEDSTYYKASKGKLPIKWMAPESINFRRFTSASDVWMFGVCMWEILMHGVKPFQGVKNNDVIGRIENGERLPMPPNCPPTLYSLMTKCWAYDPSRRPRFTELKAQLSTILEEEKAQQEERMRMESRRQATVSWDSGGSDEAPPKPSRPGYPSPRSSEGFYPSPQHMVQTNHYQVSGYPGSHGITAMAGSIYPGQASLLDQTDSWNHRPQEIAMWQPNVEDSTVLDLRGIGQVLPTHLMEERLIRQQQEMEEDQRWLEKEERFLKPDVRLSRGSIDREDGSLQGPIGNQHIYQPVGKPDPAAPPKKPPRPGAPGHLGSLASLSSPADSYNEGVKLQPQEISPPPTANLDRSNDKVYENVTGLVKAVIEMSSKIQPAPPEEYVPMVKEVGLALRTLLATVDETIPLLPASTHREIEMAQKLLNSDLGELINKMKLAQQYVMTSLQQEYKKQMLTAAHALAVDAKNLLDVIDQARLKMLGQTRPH

Sequence of AXL (human) (P30530 whole entry, looked up): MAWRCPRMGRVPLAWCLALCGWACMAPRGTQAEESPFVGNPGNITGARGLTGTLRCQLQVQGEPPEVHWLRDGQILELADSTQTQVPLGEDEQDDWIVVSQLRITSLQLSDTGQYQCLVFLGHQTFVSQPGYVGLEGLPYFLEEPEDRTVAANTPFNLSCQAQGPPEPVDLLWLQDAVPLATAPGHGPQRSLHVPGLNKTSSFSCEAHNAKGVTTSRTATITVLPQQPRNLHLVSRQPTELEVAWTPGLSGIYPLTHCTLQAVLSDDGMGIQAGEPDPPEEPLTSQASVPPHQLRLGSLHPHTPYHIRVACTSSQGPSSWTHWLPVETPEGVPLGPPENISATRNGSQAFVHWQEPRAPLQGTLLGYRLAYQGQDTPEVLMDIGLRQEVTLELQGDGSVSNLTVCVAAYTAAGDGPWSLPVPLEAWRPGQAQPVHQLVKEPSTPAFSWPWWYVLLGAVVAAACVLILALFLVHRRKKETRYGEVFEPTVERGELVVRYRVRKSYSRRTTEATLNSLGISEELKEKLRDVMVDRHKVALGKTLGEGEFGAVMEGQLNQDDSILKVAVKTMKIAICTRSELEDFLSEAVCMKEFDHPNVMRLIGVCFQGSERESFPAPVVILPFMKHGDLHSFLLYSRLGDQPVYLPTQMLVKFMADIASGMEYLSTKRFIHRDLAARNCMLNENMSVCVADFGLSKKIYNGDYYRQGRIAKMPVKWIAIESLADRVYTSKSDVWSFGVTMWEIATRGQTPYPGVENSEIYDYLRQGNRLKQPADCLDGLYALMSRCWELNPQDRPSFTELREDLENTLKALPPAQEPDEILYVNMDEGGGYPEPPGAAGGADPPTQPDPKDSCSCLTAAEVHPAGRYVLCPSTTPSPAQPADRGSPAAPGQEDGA
Sequence of AKT1 (human) (P31749 whole entry, looked up): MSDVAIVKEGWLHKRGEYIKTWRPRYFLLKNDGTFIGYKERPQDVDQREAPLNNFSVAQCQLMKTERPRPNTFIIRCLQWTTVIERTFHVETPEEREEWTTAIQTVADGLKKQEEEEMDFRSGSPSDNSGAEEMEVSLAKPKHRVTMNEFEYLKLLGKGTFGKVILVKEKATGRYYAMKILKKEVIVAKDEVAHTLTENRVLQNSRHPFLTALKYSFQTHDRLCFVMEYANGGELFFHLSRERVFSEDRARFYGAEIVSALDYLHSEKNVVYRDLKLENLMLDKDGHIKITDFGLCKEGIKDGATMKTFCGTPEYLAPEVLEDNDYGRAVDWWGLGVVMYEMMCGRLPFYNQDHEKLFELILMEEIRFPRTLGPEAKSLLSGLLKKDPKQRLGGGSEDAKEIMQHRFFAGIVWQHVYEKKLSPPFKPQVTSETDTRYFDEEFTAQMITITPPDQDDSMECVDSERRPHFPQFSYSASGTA
Sequence of CSNK2A1 (human) (P68400 whole entry, looked up): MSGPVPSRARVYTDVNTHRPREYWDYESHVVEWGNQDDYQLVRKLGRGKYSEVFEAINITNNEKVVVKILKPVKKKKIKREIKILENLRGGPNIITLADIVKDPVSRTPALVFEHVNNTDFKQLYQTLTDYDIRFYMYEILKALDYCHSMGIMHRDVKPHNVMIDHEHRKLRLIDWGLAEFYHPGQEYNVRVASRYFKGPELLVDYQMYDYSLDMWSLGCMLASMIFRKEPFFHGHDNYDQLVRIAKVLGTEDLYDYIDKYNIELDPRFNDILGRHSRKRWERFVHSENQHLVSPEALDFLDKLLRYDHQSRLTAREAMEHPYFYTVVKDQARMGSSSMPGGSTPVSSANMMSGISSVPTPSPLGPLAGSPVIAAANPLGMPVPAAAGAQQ
Sequence of PLK4 (human) (O00444 whole entry, looked up): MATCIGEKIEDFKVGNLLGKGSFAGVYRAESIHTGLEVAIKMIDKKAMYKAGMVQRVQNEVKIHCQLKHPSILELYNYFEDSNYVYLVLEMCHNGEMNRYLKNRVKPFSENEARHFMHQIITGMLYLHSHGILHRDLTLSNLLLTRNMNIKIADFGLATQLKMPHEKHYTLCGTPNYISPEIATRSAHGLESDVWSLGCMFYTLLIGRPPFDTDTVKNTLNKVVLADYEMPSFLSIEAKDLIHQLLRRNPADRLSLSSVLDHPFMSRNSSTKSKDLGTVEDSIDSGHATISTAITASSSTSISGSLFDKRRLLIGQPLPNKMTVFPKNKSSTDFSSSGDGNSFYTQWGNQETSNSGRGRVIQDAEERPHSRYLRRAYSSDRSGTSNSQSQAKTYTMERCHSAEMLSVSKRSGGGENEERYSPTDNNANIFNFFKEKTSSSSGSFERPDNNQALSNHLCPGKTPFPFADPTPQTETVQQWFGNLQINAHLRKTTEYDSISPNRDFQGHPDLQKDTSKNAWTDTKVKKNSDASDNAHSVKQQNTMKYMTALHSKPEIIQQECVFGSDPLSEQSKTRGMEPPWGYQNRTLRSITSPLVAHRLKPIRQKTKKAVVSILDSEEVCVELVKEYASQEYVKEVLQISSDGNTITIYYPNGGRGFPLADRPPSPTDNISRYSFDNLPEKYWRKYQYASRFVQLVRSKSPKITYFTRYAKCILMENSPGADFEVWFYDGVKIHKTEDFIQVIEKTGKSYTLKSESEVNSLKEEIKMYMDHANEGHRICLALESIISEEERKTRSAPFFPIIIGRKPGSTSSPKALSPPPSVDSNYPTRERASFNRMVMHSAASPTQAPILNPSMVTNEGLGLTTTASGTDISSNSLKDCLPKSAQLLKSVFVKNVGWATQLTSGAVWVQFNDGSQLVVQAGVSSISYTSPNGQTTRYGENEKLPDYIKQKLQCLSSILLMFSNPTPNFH
Sequence of AURKA (human) (O14965 whole entry, looked up): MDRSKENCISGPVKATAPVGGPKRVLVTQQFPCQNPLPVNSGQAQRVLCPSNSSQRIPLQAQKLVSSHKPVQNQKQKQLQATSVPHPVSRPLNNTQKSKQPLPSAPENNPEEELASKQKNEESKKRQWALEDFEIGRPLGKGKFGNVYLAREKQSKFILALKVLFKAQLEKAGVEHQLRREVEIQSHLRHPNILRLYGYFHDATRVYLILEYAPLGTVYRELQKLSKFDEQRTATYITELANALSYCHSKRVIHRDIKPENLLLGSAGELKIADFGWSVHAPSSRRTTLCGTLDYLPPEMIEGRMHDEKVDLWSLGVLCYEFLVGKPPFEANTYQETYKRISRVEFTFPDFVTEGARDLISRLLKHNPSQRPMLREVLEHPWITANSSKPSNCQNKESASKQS
Sequence of CDK2 CCNA2 (human) (P20248 whole entry, looked up, other chains not shown): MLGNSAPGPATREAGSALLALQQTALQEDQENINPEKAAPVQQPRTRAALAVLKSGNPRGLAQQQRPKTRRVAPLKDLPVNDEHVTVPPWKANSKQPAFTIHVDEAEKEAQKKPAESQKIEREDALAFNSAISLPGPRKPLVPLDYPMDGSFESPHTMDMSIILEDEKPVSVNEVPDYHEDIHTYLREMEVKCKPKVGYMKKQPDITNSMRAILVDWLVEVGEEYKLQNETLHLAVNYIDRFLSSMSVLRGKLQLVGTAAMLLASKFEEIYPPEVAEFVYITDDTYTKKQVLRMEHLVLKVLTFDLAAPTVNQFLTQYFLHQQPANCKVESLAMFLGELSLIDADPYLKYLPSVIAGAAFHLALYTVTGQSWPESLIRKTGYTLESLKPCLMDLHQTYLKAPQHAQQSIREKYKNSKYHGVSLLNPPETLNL
Sequence of MAPK14 (human) (Q16539 whole entry, looked up): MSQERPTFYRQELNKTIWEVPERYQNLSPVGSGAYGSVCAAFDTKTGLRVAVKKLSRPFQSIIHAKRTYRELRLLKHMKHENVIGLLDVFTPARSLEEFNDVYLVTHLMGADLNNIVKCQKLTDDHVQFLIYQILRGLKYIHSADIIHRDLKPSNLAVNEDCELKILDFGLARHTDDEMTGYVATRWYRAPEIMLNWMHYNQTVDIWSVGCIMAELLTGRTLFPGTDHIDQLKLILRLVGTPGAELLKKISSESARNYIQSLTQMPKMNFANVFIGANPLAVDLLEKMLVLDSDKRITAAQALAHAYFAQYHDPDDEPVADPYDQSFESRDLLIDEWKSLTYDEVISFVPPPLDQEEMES

SMILES	residual activity [1] [%]	residual activity [2] [%]	residual activity [3] [%]	residual activity [4] [%]	residual activity [5] [%]	residual activity [6] [%]	residual activity [7] [%]	residual activity [8] [%]	residual activity [9] [%]	residual activity [10] [%]	residual activity [11] [%]	residual activity [12] [%]	residual activity [13] [%]	residual activity [14] [%]	residual activity [15] [%]	residual activity [16] [%]	residual activity [17] [%]	residual activity [18] [%]	residual activity [19] [%]	residual activity [20] [%]	also measured
CSc1ccc(CSc2nc(-c3ccncc3)c(-c3ccc(F)cc3)[nH]2)cc1	33	20	75	84	40	42	100	25	71	65	115	21	72	36	51	21	53	76	122	79	residual activity [21]: 16%; residual activity [22]: 23%; residual activity [23]: 130%
COc1ccc(C(=O)Nc2cc(-c3nc(SC)n(C)c3-c3ccc(F)cc3)ccn2)cc1	8	9	87	76	33	37	113	17	87	54	81	20	18	7	52	21	48	72	95	97	residual activity [21]: 3%; residual activity [22]: 23%; residual activity [23]: 131%
Fc1ccc(-c2[nH]c(SCc3ccccc3)nc2-c2ccncc2)cc1	58	42	76	101	49	77	110	23	80	82	94	71	41	19	89	50	76	94	93	79	residual activity [21]: 3%; residual activity [22]: 72%; residual activity [23]: 86%
Fc1ccc(-c2[nH]c(SCc3cccc4ccccc34)nc2-c2ccncc2)cc1	24	8	46	44	21	20	60	9	57	59	46	9	17	8	40	11	39	77	53	54	residual activity [21]: 3%; residual activity [22]: 17%; residual activity [23]: 124%
Fc1ccc(-c2[nH]c(CCc3ccccc3)nc2-c2ccncc2)cc1	4	1	69	99	13	45	76	2	50	54	95	26	14	1	35	9	20	81	89	44	residual activity [21]: 0%; residual activity [22]: 18%; residual activity [23]: 99%
Fc1ccc(-c2[nH]c(SCc3ccccc3)nc2-c2ccnc(Cl)c2)cc1	38	17	58	48	42	43	75	9	47	62	60	24	57	7	53	16	44	95	71	62	residual activity [21]: 9%; residual activity [22]: 42%; residual activity [23]: 120%
CSc1ccc(CSc2nc(-c3ccncc3)c(-c3ccc(Br)cc3)[nH]2)cc1	51	30	79	87	56	64	147	31	63	85	94	33	64	49	54	21	54	71	94	78	residual activity [21]: 11%; residual activity [22]: 33%; residual activity [23]: 122%
CSc1nc(-c2ccnc(NC(=O)C3CC3)c2)c(-c2ccc(F)cc2)n1C	2	13	104	109	9	234	121	17	47	18	114	56	11	11	81	8	29	89	109	31	residual activity [21]: 1%; residual activity [22]: 53%; residual activity [23]: 53%
N#CCSc1nc(-c2ccncc2)c(-c2ccc(F)cc2)[nH]1	3	8	101	102	18	90	110	2	66	80	86	57	12	2	45	10	16	93	106	53	residual activity [21]: 1%; residual activity [22]: 68%; residual activity [23]: 71%
CSc1nc(-c2ccnc(N(C(=O)C3CC3)C(=O)C3CC3)c2)c(-c2ccc(F)cc2)n1C	14	19	106	112	21	211	122	26	57	38	118	54	18	26	99	24	50	90	106	56	residual activity [21]: 4%; residual activity [22]: 36%; residual activity [23]: 79%
